Experimental data published in PMC9542353, “Design and synthesis of some new benzoylthioureido phenyl derivatives targeting carbonic anhydrase enzymes” (Journal of Enzyme Inhibition and Medicinal Chemistry, 2022).

Tests used:
hCA XII = hCA XII (Homo sapiens, UniProt O43570); test: stopped flow CO2 hydrase assay, hCA XII
Excerpt: (§1) A stopped flow CO2 hydrase assay was adopted using an SX.18 MV-R Applied Photophysics (Oxford, UK) stopped-flow instrument to assess the inhibition against the various CA isozymes[33].

hCA IX = hCA IX (Homo sapiens, UniProt Q16790); test: stopped flow CO2 hydrase assay, hCA IX
Excerpt: as §1

hCA II = hCA II (Homo sapiens, UniProt P00918); test: stopped flow CO2 hydrase assay, hCA II
Excerpt: as §1

hCA I = hCA I (Homo sapiens, UniProt P00915); test: stopped flow CO2 hydrase assay, hCA I; settings: for inhibitory activity against hCA I (in words): abstract statement
Excerpt: as §1

hCAII = settings: read-out: IC50 against hCAII; cited from earlier work

Sequence of hCA I (P00915 whole entry): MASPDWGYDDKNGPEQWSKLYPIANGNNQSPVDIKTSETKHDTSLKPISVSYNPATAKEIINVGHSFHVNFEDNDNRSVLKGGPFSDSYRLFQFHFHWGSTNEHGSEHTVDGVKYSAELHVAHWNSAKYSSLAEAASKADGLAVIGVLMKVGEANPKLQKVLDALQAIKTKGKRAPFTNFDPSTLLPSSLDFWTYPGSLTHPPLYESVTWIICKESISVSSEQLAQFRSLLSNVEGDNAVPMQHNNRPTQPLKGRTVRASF
Sequence of hCA XII (O43570 25-354): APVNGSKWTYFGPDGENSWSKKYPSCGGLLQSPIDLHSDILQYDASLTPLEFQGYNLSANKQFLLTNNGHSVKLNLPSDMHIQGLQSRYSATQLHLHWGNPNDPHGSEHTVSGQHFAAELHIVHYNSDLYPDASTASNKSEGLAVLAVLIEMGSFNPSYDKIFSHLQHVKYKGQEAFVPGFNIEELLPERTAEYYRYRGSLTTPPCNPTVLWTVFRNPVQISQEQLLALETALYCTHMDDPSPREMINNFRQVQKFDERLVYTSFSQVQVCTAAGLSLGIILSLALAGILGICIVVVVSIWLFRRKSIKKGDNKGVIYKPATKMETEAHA

Structure (SMILES)	Ki (hCA XII) [nM]	Ki (hCA IX) [nM]	melting point [°C]	Ki (hCA II) [nM]	Ki (hCA I) [nM]	inhibitory activity against hCA I (in words) (hCA I)	IC50 (hCAII) [nM]
O=C(O)c1ccc(NC(=S)NC(=O)c2ccc(Cl)cc2)cc1 [Compound 5b, 4-[3-(4-Chlorobenzoyl)thioureido]benzoic acid]	> 100000	> 100000	232 to 240	5540	8800	–	–
COc1cc(NC(=O)c2ccc(C)cc2)ccc1C(=O)NC(=S)Nc1ccc(C(=O)O)cc1 [Compound 13c, 4-(3-(2-Methoxy-4-(4-methylbenzamido)benzoyl)thioureido]benzoic acid]	> 100000	802	281 to 283	504	> 100000	–	–
NS(=O)(=O)c1ccc(NC(=S)NC(=O)c2ccccc2)cc1 [Compound 4a, N-[(4-Sulphamoylphenyl)carbamothioyl]benzamide]	57.4	106	–	–	–	–	–
NS(=O)(=O)c1ccc(NC(=S)NC(=O)c2ccc(Cl)cc2)cc1 [Compound 4b, 4-Chloro-N-[(4-sulfamoylphenyl)carbamothioyl]benzamide]	> 100000	115	226 to 234	58.1	58.5	significant inhibitory activity	–
CCOC(=O)c1ccc(NC(=S)NC(=O)c2ccc(NC(=O)C(C)C)cc2OC)cc1 [Compound 14b, Ethyl-4-[3-(4-isobutyramido-2-methoxybenzoyl)thioureido]benzoate]	> 100000	1500	245 to 247	> 100000	> 100000	–	–
O=C(NC(=S)Nc1ccccc1)c1ccc(C(F)(F)F)cc1 [III]	–	–	–	–	–	–	2480
O=C(O)c1ccc(NC(=S)NC(=O)c2ccccc2)cc1 [Compound 5a, 4-(3-Benzoylthioureido)benzoic acid]	> 100000	2930	212 to 224	465	1500	–	–
COc1cc(NC(C)=O)ccc1C(=O)NC(=S)Nc1ccc(S(N)(=O)=O)cc1 [Compound 12a, 4-Acetamido-2-methoxy-N-[(4-sulfamoylphenyl)carbamothioyl]benzamide]	83	32.2	225 to 227	15.5	67.6	significant inhibitory activity	–
CCOC(=O)c1ccc(NC(=S)NC(=O)c2ccc(Cl)c(Cl)c2)cc1 [Compound 6c, Ethyl 4-[3-(3,4-dichlorobenzoyl)thioureido]benzoate]	> 100000	239	216 to 218	> 100000	809	–	–
CCOC(=O)c1ccc(NC(=S)NC(=O)c2ccc(Cl)cc2)cc1 [Compound 6b, Ethyl 4-[3-(4-chlorobenzoyl)thioureido]benzoate]	> 100000	1400	219 to 221	> 100000	> 100000	–	–
CCOC(=O)c1ccc(NC(=S)NC(=O)c2ccccc2)cc1 [Compound 6a, Ethyl-4-(3-benzoylthioureido)benzoate]	> 100000	1740	223 to 235	> 100000	> 100000	–	–
COc1cc(NC(=O)C(C)C)ccc1C(=O)NC(=S)Nc1ccc(S(N)(=O)=O)cc1 [Compound 12b, 4-Isobutyramido-2-methoxy-N-[(4-sulfamoylphenyl)carbamothioyl] benzamide]	> 100000	1780	248 to 250	2770	> 100000	–	–
O=C(O)c1ccc(NC(=S)NC(=O)c2ccc(Br)cc2)cc1 [Compound 5d, 4-[3-(4-Bromobenzoyl)thioureido]benzoic acid]	> 100000	> 100000	206 to 215	> 100000	5560	significant inhibitory activity	–
NS(=O)(=O)c1ccc(NC(=S)NC(=O)c2ccc(Br)cc2)cc1 [Compound 4d, 4-Bromo-N-[(4-sulfamoylphenyl)carbamothioyl]benzamide]	82	> 100000	215 to 217	67	65	significant inhibitory activity	–
O=C(O)c1ccc(NC(=S)NC(=O)c2ccc(Cl)c(Cl)c2)cc1 [Compound 5c, 4-[3-(3,4-Dichlorobenzoyl)thioureido]benzoic acid]	> 100000	1740	216 to 218	6000	> 100000	–	–
COc1cc(NC(=O)C(C)C)ccc1C(=O)NC(=S)Nc1ccc(C(=O)O)cc1 [Compound 13b]	> 100000	289	256 to 258	193	> 100000	–	–
COc1cc(NC(=O)c2ccc(C)cc2)ccc1C(=O)NC(=S)Nc1ccc(S(N)(=O)=O)cc1 [Compound 12c, 2-Methoxy-4-(4-methylbenzamido)-N-[(4-sulfamoylphenyl)carbamothioyl] benzamide]	226	144	250 to 252	94.2	91	significant inhibitory activity	–
COc1ccc(NC(=S)NC(=O)c2ccc(C(F)(F)F)cc2)cc1OC [II]	–	–	–	–	–	–	1900
CCOC(=O)c1ccc(NC(=S)NC(=O)c2ccc(NC(C)=O)cc2OC)cc1 [Compound 14a, Ethyl-4-[3-(4-acetamido-2-methoxybenzoyl)thioureido]benzoate]	> 100000	1150	237 to 239	> 100000	> 100000	–	–
CCOC(=O)c1ccc(NC(=S)NC(=O)c2ccc(Br)cc2)cc1 [Compound 6d, Ethyl-4-[3-(4-bromobenzoyl)thioureido]benzoate]	> 100000	> 100000	218 to 220	31	85.4	–	–
CCOC(=O)c1ccc(NC(=S)NC(=O)c2ccc(NC(=O)c3ccc(C)cc3)cc2OC)cc1 [Compound 14c, Ethyl-4-[3-(2-methoxy-4-(4-methylbenzamido)benzoyl)thioureido]benzoate]	> 100000	1370	257 to 259	2020	> 100000	–	–
CC(=O)NC(=S)Nc1ccc(S(N)(=O)=O)cc1 [IV]	–	–	–	–	–	–	2140
COc1cc(NC(C)=O)ccc1C(=O)NC(=S)Nc1ccc(C(=O)O)cc1 [Compound 13a, 4-[3-(4-Acetamido-2-methoxybenzoyl)thioureido]benzoic acid]	> 100000	1090	245 to 247	647	1710	–	–
NS(=O)(=O)c1ccc(NC(=S)NC(=O)c2ccc(Cl)c(Cl)c2)cc1 [Compound 4c, 3,4-Dichloro-N-[(4-sulphamoylphenyl)carbamothioyl]benzamide]	88.1	> 100000	206 to 208	90	40.4	significant inhibitory activity	–
